Experimental data reported in a compilation of properties of binary mixtures (doi:10.1021/acs.jpcb.7b06452).

Assay: xn = mol fraction of the nth substance listed
Settings: 101 kPa

CC(=O)[O-].CCCC[n+]1ccn(C)c1 + CCCC[n+]1ccn(C)c1.O=S(=O)([N-]S(=O)(=O)C(F)(F)F)C(F)(F)F
viscosity [mPa·s]
Settings	293.15 K	298.15 K	303.15 K	313.15 K	323.15 K	333.15 K	343.15 K	353.15 K
x1 = 0.2512	101.2	78	61.3	–	27.9	20.19	15.46	–
x1 = 0.5001	178	132	–	60.7	39.5	27.4	19.92	15.15
x1 = 0.7497	316	223	–	91.3	–	36.9	25.7	18.76

CCCC[n+]1ccn(C)c1.O=S(=O)([N-]S(=O)(=O)C(F)(F)F)C(F)(F)F + CC(=O)[O-].CCCC[n+]1ccn(C)c1
x2 = 0
Settings	viscosity [mPa·s]
293.15 K	62.9
303.15 K	40.8
313.15 K	28.1
323.15 K	20.29
333.15 K	15.34
343.15 K	11.98

CC(=O)[O-].CCCC[P+](CCCC)(CCCC)CCCC + CC(=O)[O-].CCCC[n+]1ccn(C)c1
viscosity [mPa·s]
Settings	313.15 K	323.15 K	333.15 K	343.15 K	353.15 K
x2 = 0	–	–	67.1	43.1	29.1
x2 = 0.5018	323	–	96.7	59.2	38.7
x2 = 0.751	–	133	78	49.6	33.2
